Series [1] deals with PBMC. Put plainly: Stimulation of IL2 production in human PBMC at 0.1 ug/mL after 24 hrs by flow cytometry with cytometric bead array method. Type of series: functional, cell-based. On the technique in general: In flow cytometry, cells or beads pass a laser one at a time.
Series [2] deals with PBMC. Put plainly: Stimulation of IL2 production in human PBMC at 1 ug/mL after 24 hrs by flow cytometry with cytometric bead array method. Type of series: functional, cell-based.
The subject of series [3] is PBMC. Kind of series: Stimulation of IL4 production in human PBMC at 0.1 ug/mL after 24 hrs by flow cytometry with cytometric bead array method. Type of series: functional, cell-based.
Series [4] relates to PBMC. Kind of series: Stimulation of IL4 production in human PBMC at 1 ug/mL after 24 hrs by flow cytometry with cytometric bead array method. Type of series: functional, cell-based.
Series [5] deals with PBMC. Kind of series: Stimulation of IL6 production in human PBMC at 0.1 ug/mL after 24 hrs by flow cytometry with cytometric bead array method. Type of series: functional, cell-based.
Series [6] has as its system PBMC. Kind of series: Stimulation of IL6 production in human PBMC at 1 ug/mL after 24 hrs by flow cytometry with cytometric bead array method. In kind it is functional, cell-based.
Series [7] has as its system PBMC. Put plainly: Stimulation of IL10 production in human PBMC at 0.1 ug/mL after 24 hrs by flow cytometry with cytometric bead array method. Type of series: functional, cell-based.
For series [8], the system named is PBMC. Kind of series: Stimulation of IL10 production in human PBMC at 1 ug/mL after 24 hrs by flow cytometry with cytometric bead array method. In kind it is functional, cell-based.
Series [9] relates to PBMC. Put plainly: Stimulation of TNFalpha production in human PBMC at 0.1 ug/mL after 24 hrs by flow cytometry with cytometric bead array method. In kind it is functional, cell-based.
Series [10] concerns PBMC. Kind of series: Stimulation of TNFalpha production in human PBMC at 1 ug/mL after 24 hrs by flow cytometry with cytometric bead array method. Type of series: functional, cell-based.
In series [11] the test system is PBMC. Put plainly: Stimulation of IFN-gamma production in human PBMC at 0.1 ug/mL after 24 hrs by flow cytometry with cytometric bead array method. Type of series: functional, cell-based.
The test system of series [12] is PBMC. Kind of series: Stimulation of IFN-gamma production in human PBMC at 1 ug/mL after 24 hrs by flow cytometry with cytometric bead array method. In kind it is functional, cell-based.
The subject of series [13] is PBMC. Put plainly: Cytotoxicity against human PBMC at 0.1 ug/mL. In kind it is cell-based.
Series [14] concerns PBMC. Kind of series: Cytotoxicity against human PBMC at 1 ug/mL. Type of series: cell-based.
For the next series, the system named is Mycotypha microspora. Put plainly: Antifungal activity against Mycotypha microspora at 50 ug/disk by agar diffusion assay. As to conditions: read-out: IZ. In kind it is functional.
The test system of a further series is [Chlorella] fusca. Kind of series: Antialgal activity against 'Chlorella' fusca at 50 ug/disk by agar diffusion assay. In kind it is functional. As to conditions: Scenedesmus fuscus; read-out: IZ. (A growth-free zone around the sample is the usual read-out of agar diffusion tests.)

SMILES strings stand for the structures. Activity calls are given as the source filed them. The rule behind the calls is not given here.

As for `CC(C)=CCOc1c(C)cc(O)c2c1C(O)Oc1ccc(CC=C(C)C)c(O)c1C2=O` (centres undefined) [ARUGOSIN A], the outcome in the series with PBMC [1], in the series on PBMC [2], with PBMC [3], in the series with PBMC [4], in the series on PBMC [5] and in the series with PBMC [6] was inactive. In addition, the outcome with PBMC [7], in the series with PBMC [8], in the series on PBMC [9], in the series on PBMC [10], in the series with PBMC [11] and in the series with PBMC [12] was inactive. For the same molecule, the Activity entry with PBMC [13] and with PBMC [14] was “Non-toxic” in each case.

Consider `CC(C)=CCOc1c(C)cc(O)c2c1C(O)Oc1c(CC=C(C)C)ccc(O)c1C2=O` (centres undefined) [ARUGOSIN B], for which the outcome in the series on PBMC [1], in the series with PBMC [2], with PBMC [3], in the series with PBMC [4], in the series with PBMC [5] and in the series with PBMC [6] was inactive. Also, the outcome with PBMC [7], in the series on PBMC [8], in the series on PBMC [9], in the series on PBMC [10], in the series on PBMC [11] and in the series on PBMC [12] was inactive. Further, the Activity entry in the series on PBMC [13] and in the series on PBMC [14] was “Non-toxic” each time.

As for `CC(C)=CCOc1c(C)cc(O)c2c1C(O)Oc1c(CC=C(C)C)cc(CC=C(C)C)c(O)c1C2=O` (centres undefined) [ARUGOSINS G], the outcome in the series with PBMC [1], with PBMC [2], in the series with PBMC [3], in the series on PBMC [4], in the series on PBMC [5] and in the series on PBMC [6] was inactive. The result in the series on PBMC [7], in the series on PBMC [8], in the series on PBMC [9], in the series on PBMC [10], in the series on PBMC [11] and in the series on PBMC [12] was inactive. Also, the Activity entry in the series with PBMC [13] and with PBMC [14] was “Non-toxic” in each case.

For the molecule `CC(C)=CCc1ccc(O)c(C(=O)c2c(O)cc(C)c(O)c2C=O)c1O` [ARUGOSINS H], the values for the zone of inhibition at 50 µg/disc (with Mycotypha microspora; in [Chlorella] fusca) were 3 mm and 2 mm, respectively. Also, the outcome in the series with PBMC [1], in the series with PBMC [2], in the series with PBMC [3], in the series with PBMC [4], with PBMC [5] and in the series on PBMC [6] was inactive. Moreover, the outcome with PBMC [7], in the series with PBMC [8], in the series on PBMC [9], in the series with PBMC [10], with PBMC [11] and in the series with PBMC [12] was inactive. Besides, the Activity entry in the series on PBMC [13] and in the series with PBMC [14] was “Non-toxic” throughout.

`CC(C)=CCOc1c(C)cc2oc3c(CC=C(C)C)ccc(O)c3c(=O)c2c1CO` [EMERICELLIN]: the result with PBMC [1], with PBMC [2], in the series on PBMC [3], in the series on PBMC [4], in the series on PBMC [5] and with PBMC [6] was inactive. For the same molecule, the outcome in the series with PBMC [7], in the series on PBMC [8], in the series on PBMC [9], with PBMC [10], in the series with PBMC [11] and in the series with PBMC [12] was inactive. In addition, the Activity result with PBMC [13] and in the series with PBMC [14] was “Non-toxic” in each case.

Take `C=C1CC[C@@H]2[C@](C)(CC[C@H](O)[C@@]2(C)CCC=C(C)C)[C@@H]1Cc1c[nH]c2ccccc12` [EMINDOLE DA]: the result with PBMC [1], in the series on PBMC [2], in the series on PBMC [3], with PBMC [4], with PBMC [5] and in the series on PBMC [6] was inactive. Further, the result with PBMC [7], in the series with PBMC [8], with PBMC [9], in the series on PBMC [10], in the series on PBMC [11] and in the series with PBMC [12] was inactive. Besides, the Activity result in the series with PBMC [13] and in the series with PBMC [14] was “Non-toxic” throughout.

With `O=C1OC(O)C(Cc2ccccc2)=C1c1ccccc1` (centres undefined) [MICROPERFURANONE], the outcome in the series with PBMC [1], in the series on PBMC [2], in the series with PBMC [3], with PBMC [4], with PBMC [5] and in the series with PBMC [6] was inactive. In addition, the result with PBMC [7], in the series on PBMC [8], in the series with PBMC [9], with PBMC [10], in the series on PBMC [11] and in the series with PBMC [12] was inactive. Also, the Activity entry in the series with PBMC [13] and in the series with PBMC [14] was “Non-toxic” in each case.

With `C=C(C)[C@H]1COc2c(C)cc3oc4c(CC=C(C)C)ccc(O)c4c(=O)c3c2[C@@H]1O` [SHAMIXANTHONE], the outcome in the series with PBMC [1], in the series with PBMC [2], in the series with PBMC [3], with PBMC [4], in the series on PBMC [5] and with PBMC [6] was inactive. Besides, the outcome in the series with PBMC [7], with PBMC [8], in the series on PBMC [9], in the series on PBMC [10], in the series with PBMC [11] and in the series with PBMC [12] was inactive. In addition, the Activity entry in the series on PBMC [13] and in the series with PBMC [14] was “Non-toxic” in each case.

Source of the values: ChEMBL document CHEMBL1142597, “Arugosins G and H: prenylated polyketides from the marine-derived fungus Emericellanidulans var. acristata” (J Nat Prod, 2006).
